Results reported in PMC7901654, “Bioisosteric Discovery of NPA101.3, a Second-Generation RET/VEGFR2 Inhibitor Optimized for Single-Agent Polypharmacology” (Journal of Medicinal Chemistry, 2020).

What was measured:
Experiment in all cases: KinomeScan panel screen
Format in all cases: binding
[1] = target: T1, AURKB (Homo sapiens, UniProt Q96GD4); conditions: 100 nM, read-out: Percent Control
T1 construct: purchased DiscoveRx KINOMEscan (TRKA and CSF1R IC50 enzymes from Invitrogen)
Protocol: (§1) In addition, NPA101.3, at a concentration of 100 nM, was subjected to a kinome scan against a 96-kinase panel representing major kinome clusters (Table S2). The compound featured good selectivity, displaying strong binding activity (>90% bound) for only seven additional kinases [CSF1R (colony stimulating factor 1 receptor), FRK (fyn-related Src family tyrosine kinase), HCK (HCK proto-oncogene, Src family tyrosine kinase), LYN (lyn proto-oncogene, Src family tyrosine kinase), MKNK2 (MAPK-interacting serine/threonine kinase 2), TRKA (neurotrophic receptor tyrosine kinase 1), and TRKC (neurotrophic receptor tyrosine kinase 3)] and weak binding (>10–35% bound) for six other kinases (Table S2 and Figure S2). It is important to note that the measurement of binding affinity, which is based on control ligand displacement (Kd), is more sensitive than the in vitro kinase assay. Among the seven kinases with >90% binding, TRKA and CSF1R were selected for an in vitro kinase assay.
(§2) Supplementary Table S2: NPA101.3 KinomeScan Panel screen.
(§3) NPA101.3 was screened at a single concentration of 100 nM. Hits values lower than
(§4) 10% of control were considered strongly positive.
(§5) DiscoveRx Gene Entrez Gene Percent Compound
(§6) Symbol Symbol Control Concentration

[2] = target: T2, BRAF (Homo sapiens, UniProt P15056); conditions: 100 nM, read-out: Percent Control
T2 construct: purchased DiscoveRx KINOMEscan (TRKA and CSF1R IC50 enzymes from Invitrogen)
Protocol: as §1, §2, §3, §4, §5, §6

[3] = target: T3, BTK (Homo sapiens, UniProt Q06187); conditions: 100 nM, read-out: Percent Control
T3 construct: purchased DiscoveRx KINOMEscan (TRKA and CSF1R IC50 enzymes from Invitrogen)
Protocol: as §1, §2, §3, §4, §5, §6

[4] = target: T4, CDK5 (Homo sapiens, UniProt Q00535); conditions: CDK5, 100 nM; read-out: Percent Control
T4 construct: purchased DiscoveRx KINOMEscan (TRKA and CSF1R IC50 enzymes from Invitrogen)
Protocol: as §1, §2, §3, §4, §5, §6

[5] = target: T5, CDK7 (Homo sapiens, UniProt P50613); conditions: CDK7, 100 nM; read-out: Percent Control
T5 construct: purchased DiscoveRx KINOMEscan (TRKA and CSF1R IC50 enzymes from Invitrogen)
Protocol: as §1, §2, §3, §4, §5, §6

[6] = target: T6, CHEK2 (Homo sapiens, UniProt O96017); conditions: CHEK2, 100 nM; read-out: Percent Control
T6 construct: purchased DiscoveRx KINOMEscan (TRKA and CSF1R IC50 enzymes from Invitrogen)
Protocol: as §1, §2, §3, §4, §5, §6

[7] = target: T7, CLK1 (Homo sapiens, UniProt P49759); conditions: CLK1, 100 nM; read-out: Percent Control
T7 construct: purchased DiscoveRx KINOMEscan (TRKA and CSF1R IC50 enzymes from Invitrogen)
Protocol: as §1, §2, §3, §4, §5, §6

[8] = target: T8, CSF1R (Homo sapiens, UniProt P07333); conditions: 100 nM
T8 construct: purchased Invitrogen
Protocol: as §1, §2, §3, §4, §5, §6

[9] = target: T9, CSNK1A1 (Homo sapiens, UniProt P48729); conditions: CSNK1A1, 100 nM; read-out: Percent Control
T9 construct: purchased DiscoveRx KINOMEscan (TRKA and CSF1R IC50 enzymes from Invitrogen)
Protocol: as §1, §2, §3, §4, §5, §6

[10] = target: T10, DMPK (Homo sapiens, UniProt Q09013); conditions: 100 nM, read-out: Percent Control
T10 construct: purchased DiscoveRx KINOMEscan (TRKA and CSF1R IC50 enzymes from Invitrogen)
Protocol: as §1, §2, §3, §4, §5, §6

[11] = target: T11, GSK3B (Homo sapiens, UniProt P49841); conditions: 100 nM, read-out: Percent Control
T11 construct: purchased DiscoveRx KINOMEscan (TRKA and CSF1R IC50 enzymes from Invitrogen)
Protocol: as §1, §2, §3, §4, §5, §6

[12] = target: T12, INSR (Homo sapiens, UniProt P06213); conditions: 100 nM, read-out: Percent Control
T12 construct: purchased DiscoveRx KINOMEscan (TRKA and CSF1R IC50 enzymes from Invitrogen)
Protocol: as §1, §2, §3, §4, §5, §6

[13] = target: T13, ITK (Homo sapiens, UniProt Q08881); conditions: 100 nM, read-out: Percent Control
T13 construct: purchased DiscoveRx KINOMEscan (TRKA and CSF1R IC50 enzymes from Invitrogen)
Protocol: as §1, §2, §3, §4, §5, §6

[14] = target: T14, JAK1(JH2domain-pseudokinase) (Homo sapiens, UniProt P23458); conditions: 100 nM, read-out: Percent Control
T14 construct: JAK1(JH2domain-pseudokinase); purchased DiscoveRx KINOMEscan (TRKA and CSF1R IC50 enzymes from Invitrogen)
Protocol: as §1, §2, §3, §4, §5, §6

[15] = target: T15, JNK2 (Homo sapiens, UniProt P45984); conditions: JNK2, 100 nM; read-out: Percent Control
T15 construct: purchased DiscoveRx KINOMEscan (TRKA and CSF1R IC50 enzymes from Invitrogen)
Protocol: as §1, §2, §3, §4, §5, §6

[16] = target: T16, LIMK2 (Homo sapiens, UniProt P53671); conditions: LIMK2, 100 nM; read-out: Percent Control
T16 construct: purchased DiscoveRx KINOMEscan (TRKA and CSF1R IC50 enzymes from Invitrogen)
Protocol: as §1, §2, §3, §4, §5, §6

[17] = target: T17, LTK (Homo sapiens, UniProt P29376); conditions: 100 nM, read-out: Percent Control
T17 construct: purchased DiscoveRx KINOMEscan (TRKA and CSF1R IC50 enzymes from Invitrogen)
Protocol: as §1, §2, §3, §4, §5, §6

[18] = target: T18, MELK (Homo sapiens, UniProt Q14680); conditions: 100 nM, read-out: Percent Control
T18 construct: purchased DiscoveRx KINOMEscan (TRKA and CSF1R IC50 enzymes from Invitrogen)
Protocol: as §1, §2, §3, §4, §5, §6

[19] = target: T19, MET (Homo sapiens, UniProt P08581); conditions: 100 nM, read-out: Percent Control
T19 construct: purchased DiscoveRx KINOMEscan (TRKA and CSF1R IC50 enzymes from Invitrogen)
Protocol: as §1, §2, §3, §4, §5, §6

[20] = target: T20, MLK3 (Homo sapiens, UniProt Q16584); conditions: MLK3, 100 nM; read-out: Percent Control
T20 construct: purchased DiscoveRx KINOMEscan (TRKA and CSF1R IC50 enzymes from Invitrogen)
Protocol: as §1, §2, §3, §4, §5, §6

[21] = target: T21, MYO3A (Homo sapiens, UniProt Q8NEV4); conditions: 100 nM, read-out: Percent Control
T21 construct: purchased DiscoveRx KINOMEscan (TRKA and CSF1R IC50 enzymes from Invitrogen)
Protocol: as §1, §2, §3, §4, §5, §6

[22] = target: T22, NEK2 (Homo sapiens, UniProt P51955); conditions: NEK2, 100 nM; read-out: Percent Control
T22 construct: purchased DiscoveRx KINOMEscan (TRKA and CSF1R IC50 enzymes from Invitrogen)
Protocol: as §1, §2, §3, §4, §5, §6

[23] = target: T23, PDPK1 (Homo sapiens, UniProt O15530); conditions: PDPK1, 100 nM; read-out: Percent Control
T23 construct: purchased DiscoveRx KINOMEscan (TRKA and CSF1R IC50 enzymes from Invitrogen)
Protocol: as §1, §2, §3, §4, §5, §6

[24] = target: T24, PIK3C2B (Homo sapiens, UniProt O00750); conditions: 100 nM, read-out: Percent Control
T24 construct: purchased DiscoveRx KINOMEscan (TRKA and CSF1R IC50 enzymes from Invitrogen)
Protocol: as §1, §2, §3, §4, §5, §6

[25] = target: T25, PKAC-beta (Homo sapiens, UniProt P22694); conditions: 100 nM, read-out: Percent Control
T25 construct: purchased DiscoveRx KINOMEscan (TRKA and CSF1R IC50 enzymes from Invitrogen)
Protocol: as §1, §2, §3, §4, §5, §6

[26] = target: T26, PLK1 (Homo sapiens, UniProt P53350); conditions: PLK1, 100 nM; read-out: Percent Control
T26 construct: purchased DiscoveRx KINOMEscan (TRKA and CSF1R IC50 enzymes from Invitrogen)
Protocol: as §1, §2, §3, §4, §5, §6

[27] = target: T27, PRKD2 (Homo sapiens, UniProt Q9BZL6); conditions: PRKD2, 100 nM; read-out: Percent Control
T27 construct: purchased DiscoveRx KINOMEscan (TRKA and CSF1R IC50 enzymes from Invitrogen)
Protocol: as §1, §2, §3, §4, §5, §6

[28] = target: T28, SYK (Homo sapiens, UniProt P43405); conditions: 100 nM, read-out: Percent Control
T28 construct: purchased DiscoveRx KINOMEscan (TRKA and CSF1R IC50 enzymes from Invitrogen)
Protocol: as §1, §2, §3, §4, §5, §6

[29] = target: T29, TLK1 (Homo sapiens, UniProt Q9UKI8); conditions: TLK1, 100 nM; read-out: Percent Control
T29 construct: purchased DiscoveRx KINOMEscan (TRKA and CSF1R IC50 enzymes from Invitrogen)
Protocol: as §1, §2, §3, §4, §5, §6

[30] = target: T30, TRKC (Homo sapiens, UniProt Q16288); conditions: 100 nM
T30 construct: purchased DiscoveRx KINOMEscan (TRKA and CSF1R IC50 enzymes from Invitrogen)
Protocol: as §1, §2, §3, §4, §5, §6

[31] = target: T31, TSSK1B (Homo sapiens, UniProt Q9BXA7); conditions: 100 nM, read-out: Percent Control
T31 construct: purchased DiscoverX (outsourced KINOMEscan)
Protocol: as §1, §2, §3, §4, §5, §6

[32] = target: T32, TTK (Homo sapiens, UniProt P33981); conditions: 100 nM, read-out: Percent Control
T32 construct: purchased DiscoverX (outsourced KINOMEscan)
Protocol: as §1, §2, §3, §4, §5, §6

T30 sequence (Q16288 32-839): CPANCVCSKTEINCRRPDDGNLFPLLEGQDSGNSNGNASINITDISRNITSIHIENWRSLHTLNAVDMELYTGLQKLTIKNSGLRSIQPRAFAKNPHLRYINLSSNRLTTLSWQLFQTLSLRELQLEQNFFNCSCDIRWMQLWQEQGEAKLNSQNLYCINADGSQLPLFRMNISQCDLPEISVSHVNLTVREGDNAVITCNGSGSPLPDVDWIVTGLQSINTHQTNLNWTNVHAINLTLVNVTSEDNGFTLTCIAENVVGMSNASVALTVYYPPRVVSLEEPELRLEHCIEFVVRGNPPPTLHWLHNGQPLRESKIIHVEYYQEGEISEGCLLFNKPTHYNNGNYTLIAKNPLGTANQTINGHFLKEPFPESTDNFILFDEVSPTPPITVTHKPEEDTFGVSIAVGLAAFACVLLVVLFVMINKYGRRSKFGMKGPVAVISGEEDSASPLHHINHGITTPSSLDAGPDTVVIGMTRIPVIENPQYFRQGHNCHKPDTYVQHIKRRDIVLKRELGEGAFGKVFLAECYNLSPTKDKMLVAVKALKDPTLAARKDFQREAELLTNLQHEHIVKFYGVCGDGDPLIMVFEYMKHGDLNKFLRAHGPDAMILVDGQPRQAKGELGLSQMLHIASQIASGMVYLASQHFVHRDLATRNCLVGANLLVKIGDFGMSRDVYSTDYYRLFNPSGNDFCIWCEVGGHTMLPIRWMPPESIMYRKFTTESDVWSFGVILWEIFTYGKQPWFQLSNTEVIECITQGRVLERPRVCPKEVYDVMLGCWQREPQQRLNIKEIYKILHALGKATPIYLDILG
T8 sequence (P07333 20-972): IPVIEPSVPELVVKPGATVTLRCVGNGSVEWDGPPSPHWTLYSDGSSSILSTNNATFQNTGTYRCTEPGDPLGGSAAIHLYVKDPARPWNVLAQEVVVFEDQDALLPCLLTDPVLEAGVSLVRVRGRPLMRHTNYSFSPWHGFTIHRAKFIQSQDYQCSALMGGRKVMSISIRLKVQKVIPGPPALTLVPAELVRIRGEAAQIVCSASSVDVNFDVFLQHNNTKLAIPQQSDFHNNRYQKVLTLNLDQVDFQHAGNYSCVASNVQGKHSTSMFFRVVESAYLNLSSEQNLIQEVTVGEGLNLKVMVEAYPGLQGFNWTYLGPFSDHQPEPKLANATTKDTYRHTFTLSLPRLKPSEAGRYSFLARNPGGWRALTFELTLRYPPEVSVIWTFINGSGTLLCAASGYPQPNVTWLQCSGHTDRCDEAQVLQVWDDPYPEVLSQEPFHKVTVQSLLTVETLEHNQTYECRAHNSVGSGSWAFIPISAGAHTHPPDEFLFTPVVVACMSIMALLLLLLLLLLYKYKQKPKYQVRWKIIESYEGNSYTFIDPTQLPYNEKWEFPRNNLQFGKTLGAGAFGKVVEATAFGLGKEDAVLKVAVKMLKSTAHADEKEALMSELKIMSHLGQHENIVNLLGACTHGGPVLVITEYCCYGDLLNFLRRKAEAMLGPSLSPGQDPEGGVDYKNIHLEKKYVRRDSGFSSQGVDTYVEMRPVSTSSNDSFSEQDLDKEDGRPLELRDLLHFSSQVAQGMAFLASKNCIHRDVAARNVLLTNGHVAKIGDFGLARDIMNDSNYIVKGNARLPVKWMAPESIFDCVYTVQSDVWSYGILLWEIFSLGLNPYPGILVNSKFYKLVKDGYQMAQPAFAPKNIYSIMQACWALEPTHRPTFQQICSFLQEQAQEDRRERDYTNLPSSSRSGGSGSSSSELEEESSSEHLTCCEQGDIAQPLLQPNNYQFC
T15 sequence (P45984 whole entry): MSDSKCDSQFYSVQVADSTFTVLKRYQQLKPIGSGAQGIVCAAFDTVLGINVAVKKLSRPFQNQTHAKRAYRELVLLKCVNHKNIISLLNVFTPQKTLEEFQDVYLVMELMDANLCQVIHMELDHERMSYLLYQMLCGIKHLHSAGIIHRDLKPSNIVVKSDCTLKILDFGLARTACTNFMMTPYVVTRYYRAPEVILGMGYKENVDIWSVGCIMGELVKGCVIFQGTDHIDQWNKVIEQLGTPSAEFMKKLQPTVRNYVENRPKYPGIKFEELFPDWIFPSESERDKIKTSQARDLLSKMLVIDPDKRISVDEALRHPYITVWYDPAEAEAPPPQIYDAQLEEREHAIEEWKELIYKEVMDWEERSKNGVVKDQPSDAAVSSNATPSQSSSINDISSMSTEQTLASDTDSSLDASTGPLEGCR
T24 sequence (O00750 whole entry): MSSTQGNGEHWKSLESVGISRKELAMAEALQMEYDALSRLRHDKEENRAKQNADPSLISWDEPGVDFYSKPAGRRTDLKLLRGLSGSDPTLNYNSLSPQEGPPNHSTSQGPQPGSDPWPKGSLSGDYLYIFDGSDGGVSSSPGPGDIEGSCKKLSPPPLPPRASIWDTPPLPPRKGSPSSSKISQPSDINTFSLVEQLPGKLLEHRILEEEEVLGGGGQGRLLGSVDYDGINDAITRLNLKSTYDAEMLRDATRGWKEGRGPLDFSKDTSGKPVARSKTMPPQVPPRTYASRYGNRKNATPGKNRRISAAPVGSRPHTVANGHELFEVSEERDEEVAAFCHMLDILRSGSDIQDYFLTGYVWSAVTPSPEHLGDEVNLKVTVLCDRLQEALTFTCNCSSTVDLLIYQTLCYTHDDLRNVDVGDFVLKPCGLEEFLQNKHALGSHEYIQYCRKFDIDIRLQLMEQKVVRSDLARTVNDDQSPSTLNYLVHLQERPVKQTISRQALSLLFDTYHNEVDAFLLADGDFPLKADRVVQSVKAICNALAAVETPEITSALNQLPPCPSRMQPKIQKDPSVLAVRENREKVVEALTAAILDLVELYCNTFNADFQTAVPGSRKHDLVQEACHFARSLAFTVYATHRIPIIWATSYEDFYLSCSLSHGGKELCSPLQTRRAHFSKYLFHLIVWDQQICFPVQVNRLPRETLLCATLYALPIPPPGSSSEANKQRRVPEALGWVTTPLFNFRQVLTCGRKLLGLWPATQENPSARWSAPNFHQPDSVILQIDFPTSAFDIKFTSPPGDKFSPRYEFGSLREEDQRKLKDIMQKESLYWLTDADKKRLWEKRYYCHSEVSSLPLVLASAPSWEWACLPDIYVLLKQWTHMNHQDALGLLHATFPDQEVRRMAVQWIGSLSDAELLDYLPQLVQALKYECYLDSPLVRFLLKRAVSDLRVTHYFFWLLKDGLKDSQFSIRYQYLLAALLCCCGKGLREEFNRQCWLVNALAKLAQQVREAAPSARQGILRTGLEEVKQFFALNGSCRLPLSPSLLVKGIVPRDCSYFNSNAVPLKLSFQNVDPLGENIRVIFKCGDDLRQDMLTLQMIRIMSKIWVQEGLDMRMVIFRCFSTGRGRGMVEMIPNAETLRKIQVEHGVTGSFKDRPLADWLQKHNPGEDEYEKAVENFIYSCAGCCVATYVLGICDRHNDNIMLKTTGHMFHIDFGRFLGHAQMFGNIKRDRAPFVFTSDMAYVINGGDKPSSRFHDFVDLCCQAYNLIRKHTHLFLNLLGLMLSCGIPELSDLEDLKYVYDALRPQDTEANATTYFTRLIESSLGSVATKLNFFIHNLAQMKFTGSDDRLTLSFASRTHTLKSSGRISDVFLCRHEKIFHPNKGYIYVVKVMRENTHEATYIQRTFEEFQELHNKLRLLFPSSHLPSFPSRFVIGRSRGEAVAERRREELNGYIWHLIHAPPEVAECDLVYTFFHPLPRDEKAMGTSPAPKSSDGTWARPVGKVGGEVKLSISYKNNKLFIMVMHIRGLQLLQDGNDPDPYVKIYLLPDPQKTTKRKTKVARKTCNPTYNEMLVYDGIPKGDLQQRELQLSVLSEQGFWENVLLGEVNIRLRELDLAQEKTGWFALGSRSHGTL
T16 sequence (P53671 whole entry): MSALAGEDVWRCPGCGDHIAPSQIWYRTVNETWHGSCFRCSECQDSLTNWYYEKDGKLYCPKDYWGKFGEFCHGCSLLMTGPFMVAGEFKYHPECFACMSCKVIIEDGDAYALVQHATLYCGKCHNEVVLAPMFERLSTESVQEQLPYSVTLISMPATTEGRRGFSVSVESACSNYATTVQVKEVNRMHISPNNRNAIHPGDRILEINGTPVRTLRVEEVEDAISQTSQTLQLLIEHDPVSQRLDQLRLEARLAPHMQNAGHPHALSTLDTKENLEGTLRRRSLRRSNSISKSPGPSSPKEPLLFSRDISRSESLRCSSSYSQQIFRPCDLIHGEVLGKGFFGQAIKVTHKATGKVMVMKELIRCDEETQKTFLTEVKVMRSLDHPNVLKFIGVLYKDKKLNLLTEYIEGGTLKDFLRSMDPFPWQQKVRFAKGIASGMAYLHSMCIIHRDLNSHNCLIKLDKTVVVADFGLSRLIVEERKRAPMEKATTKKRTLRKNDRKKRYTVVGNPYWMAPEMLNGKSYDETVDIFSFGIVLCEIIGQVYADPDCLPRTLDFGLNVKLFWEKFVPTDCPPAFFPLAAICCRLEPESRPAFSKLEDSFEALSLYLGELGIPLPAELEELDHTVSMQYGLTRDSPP
T10 sequence (Q09013 whole entry): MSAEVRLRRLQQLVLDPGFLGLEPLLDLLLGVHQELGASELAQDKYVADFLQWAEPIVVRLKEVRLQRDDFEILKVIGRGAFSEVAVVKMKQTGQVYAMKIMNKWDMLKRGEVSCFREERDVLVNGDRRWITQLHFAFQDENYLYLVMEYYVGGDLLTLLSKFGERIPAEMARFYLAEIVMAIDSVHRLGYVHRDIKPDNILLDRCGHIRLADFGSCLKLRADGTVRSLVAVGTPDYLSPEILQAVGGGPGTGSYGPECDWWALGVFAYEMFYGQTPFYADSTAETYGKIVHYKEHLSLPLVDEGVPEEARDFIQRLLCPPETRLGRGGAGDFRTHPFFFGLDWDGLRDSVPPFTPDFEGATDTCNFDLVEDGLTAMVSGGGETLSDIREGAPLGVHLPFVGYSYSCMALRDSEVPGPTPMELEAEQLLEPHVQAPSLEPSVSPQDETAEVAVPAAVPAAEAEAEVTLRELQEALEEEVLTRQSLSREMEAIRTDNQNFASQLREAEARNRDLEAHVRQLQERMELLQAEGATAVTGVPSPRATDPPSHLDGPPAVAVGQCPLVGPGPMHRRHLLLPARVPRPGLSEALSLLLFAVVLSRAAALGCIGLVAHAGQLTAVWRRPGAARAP

`CC(C)(C)c1cc(NC(=O)Cc2ccc(-n3cnc4cc(-c5ccc(S(C)(=O)=O)cc5)ccc43)cc2)no1` [NPA101.3] was tested, and the remaining binding at 0.1 µM [1] was 49%, the remaining binding at 0.1 µM [2] was 98% and the remaining binding at 0.1 µM [3] was 93%. For the same compound, the remaining binding at 0.1 µM [4] was 97%, the remaining binding at 0.1 µM [5] was 28% and the remaining binding at 0.1 µM [6] was 79%. The remaining binding at 0.1 µM [7] was 82%, the “binding (% bound)” value [8] was over 90 % bound and the remaining binding at 0.1 µM ([8]; CSF1R, read-out: Percent Control) was 0.05%. For the same compound, the remaining binding at 0.1 µM [9] was 69%, the remaining binding at 0.1 µM [10] was 99% and the remaining binding at 0.1 µM [11] was 100%. The remaining binding at 0.1 µM [12] was 100%, the remaining binding at 0.1 µM [13] was 72% and the remaining binding at 0.1 µM [14] was 93%. The remaining binding at 0.1 µM [15] was 78%, the remaining binding at 0.1 µM [16] was 94% and the remaining binding at 0.1 µM [17] was 61%. For the same compound, the remaining binding at 0.1 µM [18] was 83%, the remaining binding at 0.1 µM [19] was 79% and the remaining binding at 0.1 µM [20] was 100%. The remaining binding at 0.1 µM [21] was 77%, the remaining binding at 0.1 µM [22] was 100% and the remaining binding at 0.1 µM [23] was 96%. It also gave a remaining binding at 0.1 µM [24] of 100%, a remaining binding at 0.1 µM [25] of 82% and a remaining binding at 0.1 µM [26] of 99%. The remaining binding at 0.1 µM [27] was 100%, the remaining binding at 0.1 µM [28] was 100% and the remaining binding at 0.1 µM [29] was 100%. For the same compound, the “binding (% bound)” value [30] was over 90 % bound, the remaining binding at 0.1 µM ([30]; TRKC, read-out: Percent Control) was 0.25% and the remaining binding at 0.1 µM [31] was 96%. The remaining binding at 0.1 µM [32] was 66%.
